The results in this text go back to PMC6974524 (Frontiers in Microbiology, 2020).

Values after ≈ are worked out from the molar mass of the structure shown.

One experiment concerns Mtb-KD. In kind it is cell-based, Mycobacterium tuberculosis.
The test system of a further experiment is clinical Mtb strains. The experiment can be described thus: microbe, parasite or virus in culture. In kind it is cell-based, Mycobacterium tuberculosis. The following applies: Mycobacterium tuberculosis; range over standard and clinical strains (abstract); read-out: MIC for the standard and clinical drug-resistant Mtb strains.

With `N[C@@H]1CON=C1O` [DCS, D-cycloserine, reference compound], in the experiment on Mtb-KD, the “MIC, ddlA knocked-down” value was 1 µg/mL (≈ 9.79 µM) and the “MIC, ddlA overexpressed” value was 32 µg/mL (≈ 313 µM).
Consider `OC1(c2ccc(OC(F)F)cc2)C[N+](c2ccccc2)=C2CCCCN21` (centres unmarked) [IMB-0283], for which the MIC in the experiment with clinical Mtb strains lay within 0.25 to 4 µg/mL. Also, in the experiment with Mtb-KD, the “MIC, ddlA knocked-down” value was 0.25 µg/mL and the “MIC, ddlA overexpressed” value came out at 2 µg/mL.
